Source: patent US4137380A, “Polyester granules and process” (priority 1972, dated 1979)
Read-outs that look alike come from different tables or passages of the source.

Key:
[1] = Relative water solubility of amine; conditions: amine base
[2] = Dissociation constant in water (pKa value) of amine; type: physicochemical
Description: If more than one type of amine group is present in the molecule then the relevant pKa value is that of the most basic amine group.

[3] = amine base, in water, read-out: pKa

| pKa ([2]; water) | Molecule | Rel. W. Sol [1] | pKa [2, 3] |
| --- | --- | --- | --- |
| – | CCN [ethylamine] | high | – |
| 11.8 | NCCCCCCCCCCCCN [dodecylene diamine] | insoluble | – |
| – | NCCN [ethylene diamine] | high | – |
| – | Nc1ccccc1 [aniline] | insoluble | – |
| – | Cc1ccccc1N [o-toluidine] | insoluble | 6 |
| 5.4 | vinyl pyridine | – | – |
| – | C=C(C)C(=O)OCCN(C)C [DMAEMA, dimethylaminoethylmethacrylate] | high | 5.4 |
